Laboratory results from ChEMBL document CHEMBL1201862, “PubChem BioAssay data set” (2004).
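Following 48 hours of exposure in 96-well plates, responses at five concentrations were used to interpolate endpoints linearly. GI50 is the concentration that inhibits growth by half.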 Calls of active or inactive are those of the source. Cut-off read from the data, not from the text of the source: active = GI50 up to about 1.1 µM and inactive = higher. Starred links: 1 amine or outer side, 2 acyl side, 3 side chain; linkers in the order of their positions; H or OH if unused. Positions of bridges follow the written chain, without caps; N, C: chain ends. Non-standard residues stand in square brackets, D forms with d. Residues, ends and D or L forms follow the SMILES beside them. Chains are numbered I, II in the order given. ξ: configuration not given here. X42 = N=C(N)NCCC[C@H](NC(=N)CCCCCCC(=N)N[C@@H](CCCNC(=N)N)C(=O)[*:2])C(=O)[*:1]; Oic(3aξ,7aξ) = O=C(O)[C@@H]1CC2CCCCC2N1; Igl = N[C@H](C(=O)O)C1Cc2ccccc2C1; Hyp = O=C(O)[C@@H]1C[C@@H](O)CN1

What was measured:
Assay in all cases: DTP human tumour cell line panel, 48 h
NCI-H226 = tested on: NCI-H226
UACC-62 = tested on: UACC-62
HOP-92 = tested on: HOP-92
SNB-75 = tested on: SNB-75
CCRF-CEM = tested on: CCRF-CEM
OVCAR-5 = tested on: OVCAR-5
PC-3 = tested on: PC-3
SF-295 = tested on: SF-295
OVCAR-4 = tested on: OVCAR-4
SF-268 = tested on: SF-268
M14 = tested on: M14
SW-620 = tested on: SW-620
SR = tested on: SR
LOX IMVI = tested on: LOX IMVI
U-251 = tested on: U-251
HCT-116 = tested on: HCT-116
SF-539 = tested on: SF-539
UACC-257 = tested on: UACC-257
SK-MEL-2 = tested on: SK-MEL-2
SNB-19 = tested on: SNB-19

CCC(=O)NI1OC(=O)c2ccccc21
GI50 (NCI-H226): > 100 µM (inactive)
GI50 (UACC-62): > 100 µM (inactive)
GI50 (HOP-92): > 100 µM (inactive)
GI50 (SNB-75): > 100 µM (inactive)
GI50 (CCRF-CEM): 40.9 µM (inactive)
GI50 (OVCAR-5): > 100 µM (inactive)
GI50 (PC-3): > 100 µM (inactive)
GI50 (SF-295): > 100 µM (inactive)
GI50 (OVCAR-4): > 100 µM (inactive)
GI50 (SF-268): > 100 µM (inactive)
GI50 (M14): > 100 µM (inactive)
GI50 (SW-620): > 100 µM (inactive)
GI50 (SR): 36.9 µM (inactive)
GI50 (LOX IMVI): > 100 µM (inactive)
GI50 (U-251): > 100 µM (inactive)
GI50 (HCT-116): > 100 µM (inactive)
GI50 (SF-539): > 100 µM (inactive)
GI50 (UACC-257): > 100 µM (inactive)
GI50 (SK-MEL-2): > 100 µM (inactive)

N=C(N)NCCC[C@H](NC(=O)[C@@H]1CC2CCCCC2N1C(=O)[C@@H](NC(=O)[C@H](CO)NC(=O)[C@@H](NC(=O)CNC(=O)[C@@H]1CCCN1C(=O)[C@H](CCCNC(=N)N)NC(=O)[C@H](CCCNC(=N)N)NC(=N)CCCCCCC(=N)N[C@@H](CCCNC(=N)N)C(=O)N[C@@H](CCCNC(=N)N)C(=O)N1CCC[C@H]1C(=O)N1C[C@H](O)C[C@H]1C(=O)NCC(=O)N[C@H](C(=O)N[C@@H](CO)C(=O)N[C@H](C(=O)N1C2CCCCC2C[C@H]1C(=O)N[C@@H](CCCNC(=N)N)C(=O)O)C1Cc2ccccc2C1)C1Cc2ccccc2C1)C1Cc2ccccc2C1)C1Cc2ccccc2C1)C(=O)O (stereo partly specified) (I: RP[Hyp]G[Igl]S[Igl][Oic(3aξ,7aξ)]R-OH / II: RPG[Igl]S[Igl][Oic(3aξ,7aξ)]R-OH; linker I:N-II:N via X42)
GI50 (UACC-62): 1.83 µM (inactive)
GI50 (HOP-92): 2.21 µM (inactive)
GI50 (SNB-19): 2.36 µM (inactive)
GI50 (CCRF-CEM): 3.11 µM (inactive)
GI50 (OVCAR-5): 3.48 µM (inactive)
GI50 (PC-3): 1.62 µM (inactive)
GI50 (SF-295): 1.86 µM (inactive)
GI50 (OVCAR-4): 2.73 µM (inactive)
GI50 (SF-268): 1.92 µM (inactive)
GI50 (M14): 3.18 µM (inactive)
GI50 (SW-620): 2.28 µM (inactive)
GI50 (SR): 0.169 µM (active)
GI50 (LOX IMVI): 2.24 µM (inactive)
GI50 (U-251): 2.48 µM (inactive)
GI50 (HCT-116): 4.38 µM (inactive)
GI50 (SF-539): 2.36 µM (inactive)
GI50 (UACC-257): 4.15 µM (inactive)
GI50 (SK-MEL-2): 2.33 µM (inactive)

CC(C)=CC1C(COC(=O)c2cc3c(cc2Cl)OCO3)C1(C)C (stereo unspecified)
GI50 (NCI-H226): 42.4 µM (inactive)
GI50 (UACC-62): 36.1 µM (inactive)
GI50 (HOP-92): 23.8 µM (inactive)
GI50 (SNB-19): 95.7 µM (inactive)
GI50 (CCRF-CEM): 26.9 µM (inactive)
GI50 (OVCAR-5): 60.4 µM (inactive)
GI50 (PC-3): 35.5 µM (inactive)
GI50 (SF-295): 34.4 µM (inactive)
GI50 (OVCAR-4): 28.4 µM (inactive)
GI50 (SF-268): 19.3 µM (inactive)
GI50 (M14): 38.7 µM (inactive)
GI50 (SW-620): 33.1 µM (inactive)
GI50 (SR): 21.3 µM (inactive)
GI50 (LOX IMVI): 22.3 µM (inactive)
GI50 (U-251): 26.8 µM (inactive)
GI50 (HCT-116): 33.4 µM (inactive)
GI50 (UACC-257): 40.3 µM (inactive)
GI50 (SK-MEL-2): 18.6 µM (inactive)

Cc1ccc(/S(Cc2ccccc2)=N\S(=O)(=O)c2ccc(C)cc2)cc1 (stereo unspecified)
GI50 (NCI-H226): > 100 µM (inactive)
GI50 (HOP-92): > 100 µM (inactive)
GI50 (SNB-19): > 100 µM (inactive)
GI50 (CCRF-CEM): > 100 µM (inactive)
GI50 (OVCAR-5): > 100 µM (inactive)
GI50 (PC-3): > 100 µM (inactive)
GI50 (SF-295): > 100 µM (inactive)
GI50 (SF-268): > 100 µM (inactive)
GI50 (M14): > 100 µM (inactive)
GI50 (SW-620): > 100 µM (inactive)
GI50 (SR): > 100 µM (inactive)
GI50 (U-251): > 100 µM (inactive)
GI50 (HCT-116): > 100 µM (inactive)
GI50 (SF-539): > 100 µM (inactive)
GI50 (UACC-257): > 100 µM (inactive)

Nc1nc(-c2cccs2)cs1
GI50 (UACC-62): 83.9 µM (inactive)
GI50 (HOP-92): 26.4 µM (inactive)
GI50 (SNB-75): > 100 µM (inactive)
GI50 (SNB-19): > 100 µM (inactive)
GI50 (CCRF-CEM): 29 µM (inactive)
GI50 (OVCAR-5): > 100 µM (inactive)
GI50 (PC-3): 67.9 µM (inactive)
GI50 (SF-295): 64.4 µM (inactive)
GI50 (OVCAR-4): > 100 µM (inactive)
GI50 (SF-268): > 100 µM (inactive)
GI50 (M14): > 100 µM (inactive)
GI50 (SW-620): > 100 µM (inactive)
GI50 (SR): 69.5 µM (inactive)
GI50 (LOX IMVI): 79.1 µM (inactive)
GI50 (U-251): 71.3 µM (inactive)
GI50 (HCT-116): 56.8 µM (inactive)
GI50 (SF-539): > 100 µM (inactive)
GI50 (UACC-257): > 100 µM (inactive)
GI50 (SK-MEL-2): > 100 µM (inactive)

Cc1cn2c(C)csc2c1P(=O)(OC(C)C)OC(C)C
GI50 (UACC-62): > 100 µM (inactive)
GI50 (HOP-92): > 100 µM (inactive)
GI50 (SNB-75): > 100 µM (inactive)
GI50 (SNB-19): > 100 µM (inactive)
GI50 (CCRF-CEM): > 100 µM (inactive)
GI50 (OVCAR-5): > 100 µM (inactive)
GI50 (PC-3): > 100 µM (inactive)
GI50 (SF-295): > 100 µM (inactive)
GI50 (OVCAR-4): > 100 µM (inactive)
GI50 (SF-268): > 100 µM (inactive)
GI50 (M14): > 100 µM (inactive)
GI50 (SW-620): > 100 µM (inactive)
GI50 (SR): > 100 µM (inactive)
GI50 (LOX IMVI): > 100 µM (inactive)
GI50 (U-251): > 100 µM (inactive)
GI50 (HCT-116): > 100 µM (inactive)
GI50 (SF-539): > 100 µM (inactive)
GI50 (UACC-257): > 100 µM (inactive)
GI50 (SK-MEL-2): > 100 µM (inactive)

CCOP(=O)(O)C1C(CO)OC(n2ccc(=O)[nH]c2=O)C1O (stereo unspecified)
GI50 (NCI-H226): > 100 µM (inactive)
GI50 (UACC-62): > 100 µM (inactive)
GI50 (HOP-92): > 100 µM (inactive)
GI50 (SNB-75): > 100 µM (inactive)
GI50 (SNB-19): > 100 µM (inactive)
GI50 (CCRF-CEM): > 100 µM (inactive)
GI50 (PC-3): > 100 µM (inactive)
GI50 (SF-295): > 100 µM (inactive)
GI50 (OVCAR-4): > 100 µM (inactive)
GI50 (SF-268): > 100 µM (inactive)
GI50 (M14): > 100 µM (inactive)
GI50 (SW-620): > 100 µM (inactive)
GI50 (SR): > 100 µM (inactive)
GI50 (LOX IMVI): > 100 µM (inactive)
GI50 (HCT-116): > 100 µM (inactive)
GI50 (SF-539): > 100 µM (inactive)
GI50 (UACC-257): > 100 µM (inactive)
GI50 (SK-MEL-2): > 100 µM (inactive)
